Test results: patent US20060111423A1, “Use of diindolylmethane-related indoles and growth factor receptor inhibitors for the treatment of human cytomegalovirus-associated disease” (priority 2004, published 2006)

What was measured:
[1] = tested on: TRAMP-C2 prostate cancer cells; format: in vivo; settings: C57BL/6 mice, gavage once daily 5 days per week, 4 weeks
Procedure: METHODS: TRAMP-C2 cells, a mouse PC cell line are obtained from the American Type Culture Collection (Rockville, Md.). Six week old male C57BL/6 mice are purchased from Harlan Laboratories (Harlan, USA). TRAMP-C2 cells are suspended in media and aliquots are injected into the flank of male C57BL/6 mice using a 27 gauge needle. Two weeks after tumor transplantation when tumors appear, mice are divided in six groups treated as indicated:
Animals are dosed by gavage once daily, 5 days per week. Tumor volumes are measured weekly for 4 weeks following transplantation using calipers. Later, the tumors are removed, their final weights and volumes are measured. […] Tumor volumes in mm^2 are determined during the study using the formula π/6×larger diameter×(smaller diameter)^2. The data are expressed as the increase or decrease in tumor volume in mm^3. Histological studies are performed to assess the contribution of apotosis promotion in the reduction of tumor volume in treated groups.

Towne strain HCMV = assay: HCMV titer reduction assay in HEL fibroblasts; format: cell-based, Human Cytomegalovirus; settings: HEL fibroblasts infected with HCMV, supernatant day 6 postinfection, plaque assay
Procedure: Cell culture studies are performed to establish activity of DIM-related indoles alone and in combination with GFR's as inhibitors of HCMV replication in an in vitro model relevant to human infection.
Cell culture and viral infection. Human embryonic lung (HEL) fibroblasts are cultured in Eagle's minimal essential media (EMEM) (Gibco, BRL) supplemented with 10% fetal bovine serum (FBS) plus antibiotics.
Towne strain HCMV (passages 36 to 40) is propagated in HEL fibroblasts as previously described (Kowalik et al., 1993, Proc. Natl. Acad. Sci. USA 90:1107-1111).
For infection, cells are grown to confluence and then are serum starved for 48 h in minimal essential media (MEM) plus antibiotics. Cells are infected with HCMV that had been purified through a sucrose cushion to eliminate cytokines and growth factor contamination. Seeding of cells using a multiplicity of infection of 2-5 PFU per cell is used.
At the indicated time after infection, cells are washed once and then are maintained in MEM plus antibiotics until they are harvested. Cells are pretreated for 1 h with the listed compound or combinations of compounds prior to infection. […]
Titer reduction assay. The levels of active virus during the culture period are determined using a Titer Reduction Assay. […] HCMV plaque numbers are scored under an inverted microscope.

In the case of COc1cc2ncnc(Nc3ccc(F)c(Cl)c3)c2cc1OCCCN1CCOCC1 [Gefitinib, N-(3-chloro-4-fluorophenyl)-7-methoxy-6-(3-morpholinopropoxy)quinazolin-4-amine, reference compound], the “tumor growth (tumor volumes compared to control group)” value [1] is reported as “inhibition of tumor growth”.

c1ccc2c(Cc3c[nH]c4ccccc34)c[nH]c2c1 [Diindolylmethane, 3,3′-diindolylmethane] was tested, and the “tumor growth (tumor volumes compared to control group)” value [1] was “inhibition of tumor growth” and the viral titers (Towne strain HCMV) was “significant decrease”.
